Article PMC6886737 (Bioorganic & medicinal chemistry letters, 2019)

Assays:
CDK14 [1] = target: T1, CDK14 (Homo sapiens, UniProt O94921); assay: Biotin JNK-IN-7 pull-down assay, cellular CDK14 engagement; details: for concentration at which CDK14 pulldown is blocked / effects shown / activity in the cellular pull-down assay: cells treated 4 h
Target sequence in this assay (O94921 whole entry): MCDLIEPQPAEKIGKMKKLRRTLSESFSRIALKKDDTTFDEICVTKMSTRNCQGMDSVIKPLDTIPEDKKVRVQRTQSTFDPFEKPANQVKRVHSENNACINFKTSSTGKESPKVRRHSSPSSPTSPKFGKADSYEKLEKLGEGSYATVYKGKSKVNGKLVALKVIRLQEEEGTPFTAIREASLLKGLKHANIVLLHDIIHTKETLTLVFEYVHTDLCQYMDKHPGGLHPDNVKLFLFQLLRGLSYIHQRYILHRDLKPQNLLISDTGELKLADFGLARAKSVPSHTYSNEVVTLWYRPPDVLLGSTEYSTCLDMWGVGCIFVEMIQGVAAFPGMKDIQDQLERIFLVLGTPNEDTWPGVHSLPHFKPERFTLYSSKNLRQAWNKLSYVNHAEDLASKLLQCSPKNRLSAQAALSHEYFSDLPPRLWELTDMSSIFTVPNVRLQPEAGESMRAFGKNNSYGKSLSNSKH

CDK14 [2] = target: T1, CDK14; assay: LanthaScreen CDK14 binding assay
Target sequence in this assay (O94921 whole entry): as above
Target sequence in this assay (Q8ND76 whole entry partner): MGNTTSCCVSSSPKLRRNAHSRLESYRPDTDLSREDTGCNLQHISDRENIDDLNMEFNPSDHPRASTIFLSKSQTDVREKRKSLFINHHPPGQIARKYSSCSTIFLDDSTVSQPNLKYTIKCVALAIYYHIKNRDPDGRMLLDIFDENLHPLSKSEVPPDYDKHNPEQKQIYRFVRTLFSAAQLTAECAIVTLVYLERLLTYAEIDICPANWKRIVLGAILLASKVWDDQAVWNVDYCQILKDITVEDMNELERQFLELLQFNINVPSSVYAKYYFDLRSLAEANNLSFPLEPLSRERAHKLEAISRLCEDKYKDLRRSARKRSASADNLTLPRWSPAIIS

HCT116 cell line = assay: CellTiter-Glo proliferation assay; assay type: cell-based
CDK16 = CDK16 (Homo sapiens, UniProt Q00536); assay: KiNativ profiling; assay type: cell-based; details: read-out: CDK16 percent inhibition relative to DMSO
Sequence of CDK16 (Q00536 whole entry): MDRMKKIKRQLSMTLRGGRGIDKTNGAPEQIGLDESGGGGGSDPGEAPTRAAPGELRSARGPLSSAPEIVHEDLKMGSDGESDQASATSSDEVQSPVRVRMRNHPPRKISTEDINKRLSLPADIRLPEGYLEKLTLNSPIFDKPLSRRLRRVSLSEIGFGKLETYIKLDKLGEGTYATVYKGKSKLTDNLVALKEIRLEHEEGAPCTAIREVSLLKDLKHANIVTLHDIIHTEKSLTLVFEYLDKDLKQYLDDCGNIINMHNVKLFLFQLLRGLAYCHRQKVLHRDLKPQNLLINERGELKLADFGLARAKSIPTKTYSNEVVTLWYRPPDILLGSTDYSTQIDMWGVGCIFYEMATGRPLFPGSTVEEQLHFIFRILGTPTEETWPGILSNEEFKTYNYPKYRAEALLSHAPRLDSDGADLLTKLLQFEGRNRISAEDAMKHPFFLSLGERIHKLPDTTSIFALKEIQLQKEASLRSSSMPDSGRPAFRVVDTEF

CDK2 = CDK2 (Homo sapiens, UniProt P24941); assay: KiNativ profiling; assay type: cell-based; details: read-out: CDK2 percent inhibition relative to DMSO
CDK10 = CDK10 (Homo sapiens, UniProt Q15131); assay: KiNativ profiling; assay type: cell-based; details: read-out: CDK10 percent inhibition relative to DMSO
Sequence of CDK10 (Q15131 whole entry): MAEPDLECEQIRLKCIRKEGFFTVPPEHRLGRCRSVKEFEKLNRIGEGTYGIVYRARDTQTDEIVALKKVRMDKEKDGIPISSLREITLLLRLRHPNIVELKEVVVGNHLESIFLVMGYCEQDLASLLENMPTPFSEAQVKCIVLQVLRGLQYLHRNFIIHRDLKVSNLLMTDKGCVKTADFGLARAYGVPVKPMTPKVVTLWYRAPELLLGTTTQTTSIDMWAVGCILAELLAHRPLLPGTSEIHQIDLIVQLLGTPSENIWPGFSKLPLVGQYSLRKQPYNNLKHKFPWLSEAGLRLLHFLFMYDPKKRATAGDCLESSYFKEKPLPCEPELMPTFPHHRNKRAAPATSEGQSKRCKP

**Q.** Which “CDK14 cellular engagement screen result” value (CDK14 [1]; 1 μM, screen of library of reported CDK inhibitors) does the source give for `O=C(NC1CCNCC1)c1n[nH]cc1NC(=O)c1c(Cl)cccc1Cl` [AT7519, N-(4-piperidinyl)-4-(2,6-dichlorobenzoylamino)-1H-pyrazole-3-carboxamide, reference compound] here?
**A.** efficient CDK14 inhibitor

**Q.** With `C=CC(=O)Nc1cccc(C(=O)N2CCC(NC(=O)c3n[nH]cc3NC(=O)c3c(Cl)cccc3Cl)CC2)c1.O=C(O)C(F)(F)F` [Compound 27] as the compound, how does the “concentration at which CDK14 pulldown is blocked / effects shown” value (CDK14 [1]) read?
**A.** 500 to 1000 nM

**Q.** How did the “concentration at which CDK14 pulldown is blocked / effects shown” value (CDK14 [1]) turn out when `CN(C)C/C=C/C(=O)Nc1cccc(C(=O)Nc2ccc(NC(=O)c3n[nH]cc3NC(=O)c3c(Cl)cccc3Cl)cc2)c1.O=C(O)C(F)(F)F` [Compound 46] was run?
**A.** 500 to 1000 nM

**Q.** Which “CDK14 binding potency” value (CDK14 [2]) does the source give for `C=CC(=O)Nc1cccc(C(=O)Nc2ccc(NC(=O)c3n[nH]cc3NC(=O)c3c(Cl)cccc3Cl)c(C)c2)c1.O=C(O)C(F)(F)F` [Compound 47] here?
**A.** not tolerated by CDK14

**Q.** For `Cc1cc(NC(=O)c2cccc(NC(=O)/C=C/CN(C)C)c2)ccc1NC(=O)c1n[nH]cc1NC(=O)c1c(Cl)cccc1Cl.O=C(O)C(F)(F)F` [Compound 48], which “CDK14 binding potency” value (CDK14 [2]) is on record?
**A.** not tolerated by CDK14

**Q.** How did the “HCT116 toxicity” value (HCT116 cell line) turn out when `CN(C)CC/C=C/C(=O)Nc1ccc(N2CCC(NC(=O)c3n[nH]cc3NC(=O)c3c(Cl)cccc3Cl)CC2)cc1.O=C(O)C(F)(F)F` [Compound 54] was run?
**A.** low HCT116 toxicity

**Q.** With `CN(C)CC/C=C/C(=O)Nc1cccc(N2CCC(NC(=O)c3n[nH]cc3NC(=O)c3c(Cl)cccc3Cl)CC2)c1.O=C(O)C(F)(F)F` [Compound 56] as the compound, how does the “HCT116 toxicity” value (HCT116 cell line) read?
**A.** low HCT116 toxicity

**Q.** And the “activity in the cellular pull-down assay” value (CDK14 [1])?
**A.** not active, or weakly active

**Q.** `CN(C)CC/C=C/C(=O)Nc1ccc(S(=O)(=O)N2CC[C@@H](NC(=O)c3n[nH]cc3NC(=O)c3c(Cl)cccc3Cl)C2)cc1.O=C(O)C(F)(F)F` [Compound 68] was tested. Which “activity in the cellular pull-down assay” value (CDK14 [1]) did it give?
**A.** not active, or weakly active

**Q.** For `CN(C)C/C=C/C(=O)Nc1cccc(S(=O)(=O)N2CCC(NC(=O)c3n[nH]cc3NC(=O)c3c(Cl)cc(Cl)cc3Cl)CC2)c1.O=C(O)C(F)(F)F` [Compound 100], which inhibition at 1 µM (CDK16) is on record?
**A.** > 75%

**Q.** And the inhibition at 1 µM (CDK2)?
**A.** > 75%

**Q.** What about the inhibition at 1 µM (CDK10) of the same compound?
**A.** > 75%

**Q.** And the “concentration for complete inhibition of CDK14 pull-down” value (CDK14 [1])?
**A.** below 1 μM

**Q.** For `CN(C)C/C=C/C(=O)Nc1cccc(S(=O)(=O)N2CCC(NC(=O)c3n[nH]cc3NC(=O)c3ccccc3)CC2)c1.O=C(O)C(F)(F)F` [Compound 107], which “CDK14 binding potency” value (CDK14 [2]) is on record?
**A.** potent CDK14 inhibition

**Q.** What about the “HCT116 toxicity” value (HCT116 cell line) of the same compound?
**A.** reduced HCT116 toxicity
